Key:
[1] = biological target: T1, Aurora kinase A (Homo sapiens) (UniProt O14965); assay: Inhibition of AURKA (unknown origin) assessed as residual activity at 1000 nM by KINOMEscan analysis relative to control
T1 sequence (whole entry): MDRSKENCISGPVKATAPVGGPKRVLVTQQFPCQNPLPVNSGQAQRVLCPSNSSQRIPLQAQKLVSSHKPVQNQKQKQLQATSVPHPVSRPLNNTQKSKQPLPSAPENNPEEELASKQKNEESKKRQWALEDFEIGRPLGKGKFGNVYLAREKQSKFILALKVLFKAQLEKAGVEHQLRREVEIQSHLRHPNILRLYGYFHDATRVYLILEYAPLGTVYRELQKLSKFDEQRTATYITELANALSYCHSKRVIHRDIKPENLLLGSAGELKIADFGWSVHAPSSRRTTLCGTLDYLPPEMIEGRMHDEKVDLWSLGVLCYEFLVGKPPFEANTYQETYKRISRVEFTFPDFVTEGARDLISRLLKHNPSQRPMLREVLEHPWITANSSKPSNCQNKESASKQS

[2] = biological target: T2, Mitogen-activated protein kinase kinase kinase kinase 2 (Homo sapiens) (UniProt Q12851); assay: Inhibition of MAP4K2 (unknown origin) assessed as residual activity at 1000 nM by KINOMEscan analysis relative to control
T2 sequence (whole entry): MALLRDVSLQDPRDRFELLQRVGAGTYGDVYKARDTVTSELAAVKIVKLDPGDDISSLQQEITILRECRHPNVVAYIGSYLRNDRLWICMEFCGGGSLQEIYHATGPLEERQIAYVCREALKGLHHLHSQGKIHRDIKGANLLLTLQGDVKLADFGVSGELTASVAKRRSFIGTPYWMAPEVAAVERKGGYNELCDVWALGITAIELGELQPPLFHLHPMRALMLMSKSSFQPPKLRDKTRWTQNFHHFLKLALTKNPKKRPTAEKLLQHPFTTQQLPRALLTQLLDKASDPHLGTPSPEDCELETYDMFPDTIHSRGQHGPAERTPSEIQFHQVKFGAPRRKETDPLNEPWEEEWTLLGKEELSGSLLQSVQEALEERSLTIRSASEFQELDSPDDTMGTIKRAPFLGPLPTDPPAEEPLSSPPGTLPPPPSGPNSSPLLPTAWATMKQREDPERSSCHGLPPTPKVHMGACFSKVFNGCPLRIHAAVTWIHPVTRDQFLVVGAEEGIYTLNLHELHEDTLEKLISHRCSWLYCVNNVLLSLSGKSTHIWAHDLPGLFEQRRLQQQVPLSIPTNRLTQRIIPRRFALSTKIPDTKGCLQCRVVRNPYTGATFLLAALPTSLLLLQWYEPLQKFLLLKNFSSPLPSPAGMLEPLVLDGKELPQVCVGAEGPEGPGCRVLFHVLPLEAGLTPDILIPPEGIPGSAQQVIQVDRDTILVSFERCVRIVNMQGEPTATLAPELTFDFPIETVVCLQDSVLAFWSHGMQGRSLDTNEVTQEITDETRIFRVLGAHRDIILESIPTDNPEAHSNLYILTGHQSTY

[3] = biological target: T3, Serine/threonine-protein kinase LATS2 (Homo sapiens) (UniProt Q9NRM7); assay: Inhibition of LATS2 (unknown origin) assessed as residual activity at 1000 nM by KINOMEscan analysis relative to control
T3 sequence (whole entry): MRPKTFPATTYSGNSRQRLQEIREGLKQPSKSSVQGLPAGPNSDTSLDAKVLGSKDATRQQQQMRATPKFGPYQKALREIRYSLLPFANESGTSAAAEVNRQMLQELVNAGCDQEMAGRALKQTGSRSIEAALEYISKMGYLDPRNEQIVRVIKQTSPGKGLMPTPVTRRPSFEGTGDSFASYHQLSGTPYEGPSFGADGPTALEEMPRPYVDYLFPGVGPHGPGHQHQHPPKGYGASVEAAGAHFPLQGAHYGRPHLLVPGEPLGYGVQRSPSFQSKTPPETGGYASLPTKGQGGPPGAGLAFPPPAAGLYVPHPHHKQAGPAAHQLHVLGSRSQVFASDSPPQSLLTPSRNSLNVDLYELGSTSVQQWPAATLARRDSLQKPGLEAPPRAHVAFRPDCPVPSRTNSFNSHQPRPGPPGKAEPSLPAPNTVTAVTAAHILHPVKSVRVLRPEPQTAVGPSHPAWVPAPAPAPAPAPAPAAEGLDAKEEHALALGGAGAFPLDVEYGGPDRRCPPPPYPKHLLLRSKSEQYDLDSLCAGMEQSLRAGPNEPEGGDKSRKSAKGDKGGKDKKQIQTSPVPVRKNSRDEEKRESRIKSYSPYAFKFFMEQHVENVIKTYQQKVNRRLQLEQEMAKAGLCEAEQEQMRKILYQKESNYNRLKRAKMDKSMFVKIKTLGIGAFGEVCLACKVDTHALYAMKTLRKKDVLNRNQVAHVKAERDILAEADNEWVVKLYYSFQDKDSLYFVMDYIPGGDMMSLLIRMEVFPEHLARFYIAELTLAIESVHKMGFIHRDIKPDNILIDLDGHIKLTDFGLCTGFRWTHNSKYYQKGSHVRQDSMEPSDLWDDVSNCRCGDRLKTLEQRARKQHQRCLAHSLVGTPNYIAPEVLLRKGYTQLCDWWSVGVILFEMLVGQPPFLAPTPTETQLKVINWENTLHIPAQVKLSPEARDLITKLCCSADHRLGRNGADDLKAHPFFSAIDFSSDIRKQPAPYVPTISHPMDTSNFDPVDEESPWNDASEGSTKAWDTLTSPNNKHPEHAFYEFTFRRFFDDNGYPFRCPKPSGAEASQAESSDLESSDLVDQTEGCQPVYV

[4] = biological target: Mitogen-activated protein kinase kinase kinase 12 (Homo sapiens) (UniProt Q12852); assay: Inhibition of DLK (unknown origin) assessed as residual activity at 1000 nM by KINOMEscan analysis relative to control
[5] = biological target: Fibroblast growth factor receptor 2 (Homo sapiens) (UniProt P21802); assay: Inhibition of FGFR2 (unknown origin) assessed as residual activity at 1000 nM by KINOMEscan analysis relative to control
[6] = biological target: Mitogen-activated protein kinase kinase kinase 10 (Homo sapiens) (UniProt Q02779); assay: Inhibition of MLK2 (unknown origin) assessed as residual activity at 1000 nM by KINOMEscan analysis relative to control
Mitogen-activated protein kinase kinase kinase 10 (Homo sapiens), sequence (Q02779 whole entry, looked up): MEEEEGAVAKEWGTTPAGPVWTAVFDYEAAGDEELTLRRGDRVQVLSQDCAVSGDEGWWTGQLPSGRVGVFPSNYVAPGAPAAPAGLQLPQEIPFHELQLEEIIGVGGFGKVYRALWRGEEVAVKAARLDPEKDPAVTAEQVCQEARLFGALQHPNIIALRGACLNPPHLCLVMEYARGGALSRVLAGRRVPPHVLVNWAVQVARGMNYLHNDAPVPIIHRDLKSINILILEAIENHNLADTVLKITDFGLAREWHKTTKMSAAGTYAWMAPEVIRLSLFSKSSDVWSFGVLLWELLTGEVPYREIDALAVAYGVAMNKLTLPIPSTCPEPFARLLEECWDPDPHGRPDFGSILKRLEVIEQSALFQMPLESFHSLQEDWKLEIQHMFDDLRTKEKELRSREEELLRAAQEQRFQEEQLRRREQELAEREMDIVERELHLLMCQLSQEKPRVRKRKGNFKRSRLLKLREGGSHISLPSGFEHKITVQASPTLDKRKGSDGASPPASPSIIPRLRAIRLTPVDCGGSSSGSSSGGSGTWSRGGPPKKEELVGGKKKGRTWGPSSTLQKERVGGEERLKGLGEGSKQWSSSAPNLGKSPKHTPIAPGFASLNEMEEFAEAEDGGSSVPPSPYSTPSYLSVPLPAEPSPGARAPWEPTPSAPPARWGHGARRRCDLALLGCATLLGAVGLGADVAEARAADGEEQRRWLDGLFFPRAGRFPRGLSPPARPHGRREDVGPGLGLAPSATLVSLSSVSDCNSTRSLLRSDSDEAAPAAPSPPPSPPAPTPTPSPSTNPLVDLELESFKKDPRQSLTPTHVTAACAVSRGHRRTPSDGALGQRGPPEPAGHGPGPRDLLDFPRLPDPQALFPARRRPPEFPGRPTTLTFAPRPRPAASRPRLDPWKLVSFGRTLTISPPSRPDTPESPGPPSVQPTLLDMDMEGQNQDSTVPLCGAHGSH

Mitogen-activated protein kinase kinase kinase 12 (Homo sapiens), sequence (Q12852 whole entry, looked up): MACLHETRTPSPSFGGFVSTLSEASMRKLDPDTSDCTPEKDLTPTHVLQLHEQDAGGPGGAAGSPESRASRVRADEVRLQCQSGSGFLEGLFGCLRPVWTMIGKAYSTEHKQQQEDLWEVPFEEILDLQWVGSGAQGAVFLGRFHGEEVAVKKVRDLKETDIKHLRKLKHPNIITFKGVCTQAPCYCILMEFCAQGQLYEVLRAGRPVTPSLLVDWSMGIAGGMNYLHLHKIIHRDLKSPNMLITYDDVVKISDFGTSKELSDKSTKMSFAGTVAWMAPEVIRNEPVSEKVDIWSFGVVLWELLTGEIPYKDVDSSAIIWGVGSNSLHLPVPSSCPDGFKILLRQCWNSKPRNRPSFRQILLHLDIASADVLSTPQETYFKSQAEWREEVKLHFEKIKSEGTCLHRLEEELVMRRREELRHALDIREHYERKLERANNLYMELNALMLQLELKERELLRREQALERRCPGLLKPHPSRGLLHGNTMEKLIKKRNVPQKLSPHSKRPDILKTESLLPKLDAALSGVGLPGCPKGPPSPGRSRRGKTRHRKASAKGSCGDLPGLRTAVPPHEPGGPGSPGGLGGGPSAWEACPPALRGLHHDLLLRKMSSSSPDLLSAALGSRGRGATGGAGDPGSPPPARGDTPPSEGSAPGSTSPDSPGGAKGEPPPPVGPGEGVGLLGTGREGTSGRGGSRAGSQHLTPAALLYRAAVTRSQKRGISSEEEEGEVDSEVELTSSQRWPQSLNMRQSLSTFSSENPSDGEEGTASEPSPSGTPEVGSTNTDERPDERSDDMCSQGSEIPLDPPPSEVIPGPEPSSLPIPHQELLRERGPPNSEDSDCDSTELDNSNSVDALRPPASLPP
Fibroblast growth factor receptor 2 (Homo sapiens), sequence (P21802 22-821 limits assumed): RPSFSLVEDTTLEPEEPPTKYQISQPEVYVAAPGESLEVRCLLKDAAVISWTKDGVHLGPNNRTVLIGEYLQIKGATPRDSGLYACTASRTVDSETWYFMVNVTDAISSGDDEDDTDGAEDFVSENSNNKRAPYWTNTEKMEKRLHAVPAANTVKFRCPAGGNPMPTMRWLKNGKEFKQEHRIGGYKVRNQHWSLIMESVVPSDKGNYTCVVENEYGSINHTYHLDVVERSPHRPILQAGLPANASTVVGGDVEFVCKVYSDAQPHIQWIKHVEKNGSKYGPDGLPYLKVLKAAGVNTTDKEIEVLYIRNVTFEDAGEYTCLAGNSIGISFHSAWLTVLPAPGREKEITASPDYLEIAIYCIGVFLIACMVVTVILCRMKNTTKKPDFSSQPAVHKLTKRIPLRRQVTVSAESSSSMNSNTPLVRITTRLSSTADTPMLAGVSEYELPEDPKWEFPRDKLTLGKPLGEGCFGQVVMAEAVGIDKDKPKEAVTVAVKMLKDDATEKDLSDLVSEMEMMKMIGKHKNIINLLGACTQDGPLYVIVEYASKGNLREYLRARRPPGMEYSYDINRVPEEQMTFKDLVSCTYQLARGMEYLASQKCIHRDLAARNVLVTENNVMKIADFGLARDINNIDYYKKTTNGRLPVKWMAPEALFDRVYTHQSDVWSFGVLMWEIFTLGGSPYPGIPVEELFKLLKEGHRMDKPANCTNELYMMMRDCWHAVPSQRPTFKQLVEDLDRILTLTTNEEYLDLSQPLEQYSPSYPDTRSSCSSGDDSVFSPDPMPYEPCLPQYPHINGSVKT

| SMILES | Activity [1] [%] | Activity [2] [%] | Activity [3] [%] | Activity [4] [%] | Activity [5] [%] | Activity [6] [%] |
| --- | --- | --- | --- | --- | --- | --- |
| COc1cc2ncnc(N[C@H](C)c3cccc4ccccc34)c2cc1OC | 91 | 78 | 89 | 92 | 100 | 97 |
| COc1cc2nc(C)nc(N[C@H](C)c3cccc(-c4cn[nH]c4)c3)c2cc1OC | 89 | 100 | 100 | 95 | 67 | 42 |

— ChEMBL document CHEMBL5678818, “Discovery of potent SOS1 inhibitors that block RAS activation via disruption of the RAS-SOS1 interaction” (Proc Natl Acad Sci U S A, 2019)
